How the values were obtained:
[1] = Cold temperature stability / storage of aqueous concentrates; type: physicochemical; settings: […] salt solution ([…] acid equivalent) stored at −10° C. for 14 days
susceptible plants = settings: concentrate diluted in water, applied postemergently; disclosed in WO 2008/106107 A1; cited from earlier work

In the case of triclopyr choline salt, the Crystallization on storage [1] is reported as “did not show any crystallization”.

For choline salt of 2,4-D [2,4-D choline], the Weed control (susceptible plants) is given as “good weed control”.
